Measured values published in ChEMBL document CHEMBL3885881, “DrugMatrix”.

Species: Rattus norvegicus
Format: toxicity, organism-based, Sprague-Dawley
Conditions: in vivo, iv, 0 mg/kg, 24 h, vehicle control, dose level Control, time 1 day, vehicle 100 % SALINE
Description: DrugMatrix - Regimen: Single

CC(=O)[C@]1(O)Cc2c(O)c3c(c(O)c2[C@@H](O[C@H]2C[C@H](N)[C@H](O)[C@H](C)O2)C1)C(=O)c1ccccc1C3=O [IDARUBICIN]
ABSOLUTE BASOPHIL (tissue Blood): 280 cells/µL | ABSOLUTE EOSINOPHIL (tissue Blood): 75 cells/µL | ABSOLUTE LYMPHOCYTE (tissue Blood): 9060 cells/µL | ABSOLUTE MONOCYTE (tissue Blood): 260 cells/µL | BASOPHIL (tissue Blood): 2.17% | EOSINOPHIL (tissue Blood): 0.62% | ERYTHROCYTE COUNT (tissue Blood): 6.64 x10E6/uL | HEMATOCRIT (tissue Blood): 42.6% | HEMOGLOBIN (tissue Blood): 13.5 G/DL | LEUKOCYTE COUNT (tissue Blood): 11.87 x10E3/uL | LYMPHOCYTE (tissue Blood): 76.3% | MEAN CORPUSCULAR HEMOGLOBIN (tissue Blood): 20.37 pg | MEAN CORPUSCULAR HEMOGLOBIN CONCENTRATION (tissue Blood): 31.75 G/DL | MEAN CORPUSCULAR VOLUME (tissue Blood): 64.17 fL | MONOCYTE (tissue Blood): 2.1% | NEUTROPHIL (tissue Blood): 16.75% | PLATELET COUNT (tissue Blood): 1144.5 x10E3/uL | ALANINE AMINOTRANSFERASE (tissue Plasma): 42.75 u/L | ALBUMIN (tissue Plasma): 3.6 G/DL | ALKALINE PHOSPHATASE (tissue Plasma): 314.75 u/L | ASPARTATE AMINOTRANSFERASE (tissue Plasma): 66.5 u/L | BLOOD UREA NITROGEN (tissue Plasma): 14 mg/dL | CARBON DIOXIDE (tissue Plasma): 37.5 mmol/L | CHLORIDE (tissue Plasma): 108 MEQ/L | CHOLESTEROL (tissue Plasma): 74.25 mg/dL | CREATINE PHOSPHOKINASE (tissue Plasma): 271 u/L | CREATININE (tissue Plasma): 0.65 mg/dL | GLUCOSE (tissue Plasma): 171 mg/dL | LACTATE DEHYDROGENASE (tissue Plasma): 125.75 u/L | LIPASE (tissue Plasma): 27.5 u/L | PHOSPHORUS (tissue Plasma): 11.25 mg/dL | POTASSIUM (tissue Plasma): 6.72 MEQ/L | SODIUM (tissue Plasma): 153.5 MEQ/L | TOTAL BILIRUBIN (tissue Plasma): 0.23 mg/dL | TOTAL PROTEIN (tissue Plasma): 6.2 G/DL | URIC ACID (tissue Plasma): 0.85 mg/dL
